In ChEMBL document CHEMBL1128746, “Aminoalkylindoles: structure-activity relationships of novel cannabinoid mimetics” (J Med Chem, 1995) one finds IC50 data, which are given here for 57 compounds.

For one assay, the target named is Cannabinoid receptor 1 (Rattus norvegicus, UniProt P20272). Briefly: […] [3H]WIN-55212 binding to Cannabinoid receptor 1 in rat cerebellum membranes. The class given is cell membranes, Membrane.
The next assay is filed under the species Mus musculus. The assay can be described thus: Concentration required to inhibit electrically induced contractions in isolated mouse vas deferens preparation in vitro. It is filed as functional.

Bounds are passed on as bounds.

Sequence of Cannabinoid receptor 1 (P20272 whole entry): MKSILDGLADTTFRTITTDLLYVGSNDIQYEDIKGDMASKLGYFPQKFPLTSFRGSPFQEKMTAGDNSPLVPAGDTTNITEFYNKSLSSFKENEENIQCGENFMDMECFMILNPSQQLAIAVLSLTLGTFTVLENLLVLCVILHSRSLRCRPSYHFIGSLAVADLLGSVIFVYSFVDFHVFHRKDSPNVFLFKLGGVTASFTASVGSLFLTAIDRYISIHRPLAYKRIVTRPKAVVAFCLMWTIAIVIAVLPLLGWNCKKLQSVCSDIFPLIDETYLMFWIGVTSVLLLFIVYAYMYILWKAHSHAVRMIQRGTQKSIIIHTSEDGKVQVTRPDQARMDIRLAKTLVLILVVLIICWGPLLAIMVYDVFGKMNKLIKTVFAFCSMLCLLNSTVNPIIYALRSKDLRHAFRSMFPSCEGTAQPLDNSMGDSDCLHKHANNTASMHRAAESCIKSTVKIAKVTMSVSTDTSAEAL

A word on the IC50: it is the concentration needed to halve the response being measured. A low value points to greater potency in that assay. On to `Cc1c(C(=O)c2cccc3ccccc23)c2ccccc2n1CCN1CCOC(C)C1` (configuration not stated), for which the values for the IC50 on Cannabinoid receptor 1 and in the assay filed under Mus musculus (Mus musculus) were 59 nM and 30 nM, respectively.

In the case of `Cc1c(C(=O)c2coc3ccccc23)c2ccccc2n1CCN1CCOCC1`, the IC50 was 110 nM on Cannabinoid receptor 1 and 52 nM in the assay listed under Mus musculus (Mus musculus).

As to `O=C(c1cn(CCN2CCOCC2)c2ccccc12)c1cccc2ccoc12`, the IC50 at Cannabinoid receptor 1 amounted to 18 nM; in the assay filed under Mus musculus (Mus musculus) it was 4.6 nM.

For `Cc1c(C(=O)c2cccc3ccccc23)c2ccccc2n1CCN1CCN(C)CC1`, the IC50 in the assay filed under Mus musculus (Mus musculus) was more than 10000 nM.

`Cc1c(C(=O)c2cccc3ncccc23)c2ccccc2n1CCN1CCOCC1`: the IC50 on Cannabinoid receptor 1 turned out to be 828 nM; in the assay filed under Mus musculus (Mus musculus), 79 nM.

For the compound `O=C(c1ccc2occc2c1)c1cn(CCN2CCOCC2)c2ccccc12`, the half-maximal inhibitory concentration (IC50) worked out at 138 nM at Cannabinoid receptor 1 and 28 nM in the assay listed under Mus musculus (Mus musculus).

For `Cc1c(C(=O)c2ccc(Br)c3ccccc23)c2ccccc2n1CCN1CCOCC1`, the IC50 was found to be 6.9 nM on Cannabinoid receptor 1 and 34 nM in the assay listed under Mus musculus (Mus musculus).

For `Cc1c(C(=O)c2cccc3ccccc23)c2ccccc2n1CCN1CCCCC1`, the IC50 on Cannabinoid receptor 1 came to 37 nM; in the assay filed under Mus musculus (Mus musculus) it was 66 nM.

For the compound `Cc1c(C(=O)c2c3ccccc3cc3ccccc23)c2ccccc2n1CCN1CCOCC1`, in the assay filed under Mus musculus (Mus musculus), the IC50 is more than 10000 nM.

Turning to `O=C(c1ccc2ccccc2c1)c1cn(CCN2CCOCC2)c2ccccc12`, the figures for the IC50 on Cannabinoid receptor 1 and in the assay filed under Mus musculus (Mus musculus) were 59 nM and 31 nM, respectively.

Consider `O=C(c1ccc2ccoc2c1)c1cn(CCN2CCOCC2)c2ccccc12`, for which the IC50 turned out to be 304 nM on Cannabinoid receptor 1 and 40 nM in the assay listed under Mus musculus (Mus musculus).

As for `CCCc1ccc(C(=O)c2c(C)n(CCN3CCOCC3)c3ccccc23)cc1`, the IC50 on Cannabinoid receptor 1 amounted to 1130 nM.

For the compound `COc1ccc(C(=O)c2cn(CCN3CCOCC3)c3ccccc23)cc1`, the IC50 was 390 nM on Cannabinoid receptor 1 and 101 nM in the assay listed under Mus musculus (Mus musculus).

Turning to `Cc1c(C(=O)c2ccc3ccccc3c2)c2ccccc2n1CCN1CCOCC1`, the IC50 stood at 128 nM at Cannabinoid receptor 1 and 50 nM in the assay filed under Mus musculus (Mus musculus).

As for `Cc1ccc(C(=O)c2c(C)n(CCN3CCOCC3)c3ccccc23)c2ccccc12`, the IC50 was found to be 5.9 nM on Cannabinoid receptor 1 and 9.6 nM in the assay filed under Mus musculus (Mus musculus).

As to `COc1ccc(C(=O)c2c(C)n(CCN3CCOCC3)c3cc(Br)ccc23)cc1`, the IC50 on Cannabinoid receptor 1 is 515 nM; in the assay filed under Mus musculus (Mus musculus), more than 10000 nM.

Consider `COc1ccc(C(=O)c2c(C)n(CCN3CCNCC3)c3ccccc23)cc1`, for which the IC50 in the assay filed under Mus musculus (Mus musculus) is more than 10000 nM.

At Cannabinoid receptor 1, `Cc1c(C(=O)c2cccc3ccccc23)c2ccc(Br)cc2n1CCN1CCOCC1` came in with an IC50 of 10 nM.

For `Cc1c(C(=O)c2cccc(Cl)c2)c2ccccc2n1CCN1CCOCC1`, the IC50 at Cannabinoid receptor 1 came to 1320 nM.

`Cc1c(C(=O)c2ccc3ncccc3c2)c2ccccc2n1CCN1CCOCC1`: the half-maximal inhibitory concentration (IC50) came to 499 nM at Cannabinoid receptor 1 and 103 nM in the assay filed under Mus musculus (Mus musculus).

Turning to `O=C(c1c2ccccc2cc2ccccc12)c1cn(CCN2CCOCC2)c2ccccc12`, the results for the IC50 at Cannabinoid receptor 1 and in the assay listed under Mus musculus (Mus musculus) were 2960 nM and more than 10000 nM, respectively.

In turn, `COc1ccc(C(=O)c2c(C)n(CC(=O)O)c3ccccc23)cc1` showed an IC50 in the assay listed under Mus musculus (Mus musculus) of more than 10000 nM.

Regarding `COc1ccc(C(=O)c2c(C)n(CCN3CCOCC3)c3cc(C)ccc23)cc1`, the IC50 is 1880 nM at Cannabinoid receptor 1 and more than 10000 nM in the assay filed under Mus musculus (Mus musculus).

`Cc1c(C(=O)c2cccc3ccccc23)c2ccccc2n1C(C)CN1CCOCC1` (racemic; form 1) returned an IC50 in the assay listed under Mus musculus of 56 nM. That is a double-digit nanomolar value.

Take `CC(Cn1cc(C(=O)c2cccc3ccccc23)c2ccccc21)N1CCOCC1` (configuration not stated): the IC50 turned out to be 124 nM on Cannabinoid receptor 1 and 60 nM in the assay filed under Mus musculus (Mus musculus).

In the case of `O=C(c1cccc2ccccc12)c1cn(CCN2CCOCC2)c2ccc(Br)cc12`, the IC50 on Cannabinoid receptor 1 amounted to 186 nM; in the assay filed under Mus musculus (Mus musculus), 19 nM.

Take `Cc1ccc2c(C(=O)c3cccc4ccccc34)cn(CCN3CCOCC3)c2c1`: the IC50 on Cannabinoid receptor 1 was found to be 3.5 nM; in the assay filed under Mus musculus (Mus musculus) it was 1.7 nM.

In the case of `O=C(c1ccc2ncccc2c1)c1cn(CCN2CCOCC2)c2ccccc12`, the IC50 at Cannabinoid receptor 1 stood at 491 nM; in the assay listed under Mus musculus (Mus musculus), 142 nM.

Regarding `O=C(c1cccc2ccccc12)c1cn(CCCN2CCOCC2)c2ccccc12`, the results for the IC50 at Cannabinoid receptor 1 and in the assay filed under Mus musculus (Mus musculus) were 43 nM and 9.8 nM, respectively.

`Cc1c(C(=O)c2ccc3cccnc3c2)c2ccccc2n1CCN1CCOCC1`: in the assay listed under Mus musculus (Mus musculus), the IC50 amounted to 88 nM.

As to `O=C(c1cccc2ccccc12)c1cn(CCN2CCOCC2)c2ccc(O)cc12`, the IC50 on Cannabinoid receptor 1 was found to be 70 nM; in the assay listed under Mus musculus (Mus musculus) it was 20 nM.

In the case of `O=C(c1cccc2ccccc12)c1c(Cl)n(CCN2CCOCC2)c2ccccc12`, the IC50 at Cannabinoid receptor 1 was found to be 10 nM; in the assay filed under Mus musculus (Mus musculus), 6.1 nM.

`Cc1cccc(C(=O)c2c(C)n(CCN3CCOCC3)c3ccccc23)c1C`: the IC50 on Cannabinoid receptor 1 turned out to be 373 nM.

Turning to `Cc1c(C(=O)c2cccc3ccccc23)c2ccccc2n1C(C)CN1CCOCC1` (racemic; form 2), the IC50 at Cannabinoid receptor 1 was 13 nM; in the assay filed under Mus musculus, 11 nM.

`Cc1c(C(=O)c2ccnc3ccccc23)c2ccccc2n1CCN1CCOCC1`: the values for the IC50 on Cannabinoid receptor 1 and in the assay filed under Mus musculus (Mus musculus) were 283 nM and 115 nM, respectively.

For the compound `Cc1c(C(=O)c2cccc3ccoc23)c2ccccc2n1CCN1CCOCC1`, the IC50 on Cannabinoid receptor 1 is 71 nM; in the assay listed under Mus musculus (Mus musculus), 17 nM.

In the case of `COc1ccc(C(=O)c2c(C)n(CCCCN3CCOCC3)c3ccccc23)cc1`, in the assay filed under Mus musculus (Mus musculus), the IC50 is more than 10000 nM.

On to `COc1ccccc1C(=O)c1c(C)n(CCN2CCOCC2)c2ccccc12`, for which the values for the IC50 at Cannabinoid receptor 1 and in the assay listed under Mus musculus (Mus musculus) were 800 nM and 91 nM, respectively.

As for `Cc1c(C(=O)c2cc3ccccc3o2)c2ccccc2n1CCN1CCOCC1`, the IC50 on Cannabinoid receptor 1 was 416 nM; in the assay listed under Mus musculus (Mus musculus), 324 nM.

On to `Cc1c(C(=O)c2ccc3ccccc3n2)c2ccccc2n1CCN1CCOCC1`, for which the half-maximal inhibitory concentration (IC50) on Cannabinoid receptor 1 is 331 nM; in the assay listed under Mus musculus (Mus musculus), 99 nM.

On to `COc1ccc(C(=O)c2c(C)n(CCN3CCOCC3)c3c(C)cccc23)cc1`, for which the IC50 on Cannabinoid receptor 1 was 1530 nM; in the assay filed under Mus musculus (Mus musculus) it was 178 nM.

In the assay filed under Mus musculus (Mus musculus), `COc1ccc(C(=O)c2c(C)n(CCN3CCOC(C)C3)c3ccccc23)cc1` (configuration not stated) had an IC50 of more than 10000 nM.

At Cannabinoid receptor 1, `COc1ccc(C(=O)c2c(C)n(CCN3CCSCC3)c3ccccc23)cc1` showed an IC50 of 622 nM. This counts as sub-micromolar.

On Cannabinoid receptor 1, `O=C(c1ccc(O)c2ccccc12)c1cn(CCN2CCOCC2)c2ccccc12` registered an IC50 of 3.4 nM.

In turn, `Cc1cccc(C(=O)c2c(C)n(CCN3CCOCC3)c3ccccc23)c1` displayed an IC50 at Cannabinoid receptor 1 of 606 nM.

As to `COc1ccc(C(=O)c2cn(CCN3CCOCC3)c3ccccc23)c2ccccc12`, the IC50 on Cannabinoid receptor 1 was found to be 1.4 nM.

Regarding `CC(CN1CCOCC1)n1cc(C(=O)c2cccc3ccccc23)c2ccccc21` (racemic; form 2), in the assay filed under Mus musculus, the midpoint of inhibition, the IC50, lay at 19 nM. This lies in the double-digit nanomolar range.

For `CCc1c(C(=O)c2ccc(OC)cc2)c2ccccc2n1CCN1CCOCC1`, the IC50 in the assay filed under Mus musculus (Mus musculus) was more than 10000 nM.

Consider `COc1ccc(C(=O)c2c(C)n(CC(C)N3CCOCC3)c3ccccc23)cc1` (configuration not stated), for which the IC50 in the assay listed under Mus musculus (Mus musculus) is more than 10000 nM.

In the assay filed under Mus musculus (Mus musculus), `COc1ccc(C(=O)c2c(C)[nH]c3ccccc23)cc1` displayed an IC50 of 27 nM.

As for `COc1ccc(C(=O)c2c(C)n(CCN)c3ccccc23)cc1`, the IC50 in the assay filed under Mus musculus (Mus musculus) was more than 10000 nM.

Compound `Cc1ccc(C(=O)c2c(C)n(CCN3CCOCC3)c3ccccc23)cc1C` returned an IC50 at Cannabinoid receptor 1 of 140 nM.

For `COc1ccc(C(=O)c2c(C)n(CC[N+]3(C)CCOCC3)c3ccccc23)cc1`, the IC50 in the assay filed under Mus musculus (Mus musculus) was determined as 4310 nM.

For `CCN(CC)CCn1c(C)c(C(=O)c2ccc(OC)cc2)c2ccccc21`, the IC50 in the assay listed under Mus musculus (Mus musculus) was more than 10000 nM.

Turning to `COc1cccc2c(C(=O)c3cccc4ccccc34)c(C)n(CCN3CCOCC3)c12`, the concentration for half-maximal inhibition (IC50) at Cannabinoid receptor 1 amounted to 10 nM.

Take `COc1ccc(C(=O)c2c(C)n(CCN3CCOCC3C)c3ccccc23)cc1` (configuration not stated): the concentration for half-maximal inhibition (IC50) in the assay filed under Mus musculus (Mus musculus) was more than 10000 nM.

Compound `CCCCCc1cc(O)c2c(c1)OC(C)(C)[C@@H]1CCC(C)=C[C@@H]21` [DRONABINOL] displayed an IC50 in the assay listed under Mus musculus (Mus musculus) of 4 nM. This counts as single-digit nanomolar.
